The assay has as its system human ES cell derived cardiomyocytes. The assay is described as follows: Activity potential measurement of cardiomyocytes treated with a potential-sensitive fluorochrome. In kind it is cell-based. Conditions: 18.75 μM vitamin E and/or 18.75 μM cholesterol. The text has this:
Human embryonic stem cells (ES cells) were obtained from Stem Cell Research Center, the Institute for Frontier Medical Sciences, Kyoto University (Embryonic Stem Cell Center sponsored by the National Bioresource Project). Human induced pluripotent stem cells (iPS cells) were obtained from the Center for iPS Cell Research and Application, Institute for Integrated Cell-Material Sciences, Kyoto University. […] To prepare the MEF cells, the fetus of an ICR mouse at day 14 of gestation (CLEA Japan, Inc.) was beheaded and disemboweled and thereafter disintegrated into discrete cells by the method described in WO 2006/022377. […] In other experiments, the cultured cells were treated with a potential-sensitive fluorochrome and 18.75 μM of vitamin E and/or 18.75 μM of cholesterol and then the temporal change in fluorescent intensity was measured. […]

Regarding vitamin E, the “detection of activity potential waveforms from single cardiomyocytes (FIG. 5)” value is recorded as “became observable”.

Turning to `CC(C)CCC[C@@H](C)[C@H]1CC[C@H]2[C@@H]3CC=C4C[C@@H](O)CC[C@]4(C)[C@H]3CC[C@]12C` [cholesterol], the “detection of activity potential waveforms from single cardiomyocytes (FIG. 5)” value is “became observable”.

(Values after patent US20120214193A1, “METHOD FOR MEASUREMENT OF FLUORESCENCE INTENSITY OF VOLTAGE-SENSITIVE FLUORESCENT DYE” (Keio University, priority 2009, published 2012).)
